One series has as its system NFkappaB translocation. As to conditions: mouse, in vivo.
The next series has as its target T1, human TNF-α (Homo sapiens, UniProt P01375).
T1 construct: purchased Chemicon, Inc
Conditions: in vivo.

In another series the test system is LeTx pre-sensitized mice. Conditions: mouse, in vivo.

Experimental findings from patent US20100247525A1 (priority 2006, published 2010) are described below.

Values joined by “and” are separate entries in the source; they are usually repeats but may differ in a detail not shown here. Equal values may be shown once.

T1 sequence (P01375 77-233 limits assumed): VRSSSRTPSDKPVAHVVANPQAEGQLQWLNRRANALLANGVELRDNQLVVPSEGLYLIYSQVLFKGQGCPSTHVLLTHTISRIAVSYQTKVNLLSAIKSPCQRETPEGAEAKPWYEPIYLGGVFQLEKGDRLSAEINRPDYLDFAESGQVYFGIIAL

With `Cc1ccc(=O)n(-c2ccccc2)c1` [Pirfenidone], the survival enhancement in the series with NFkappaB translocation was 40% and 20%.
In the case of Etanercept, on human TNF-α, the prevention of lethality result is listed as “prevents lethality” and the “protection when the death initiator is human TNF-α” value is “protects”.
For the compound PAM3-CSK-4, in the series with LeTx pre-sensitized mice, the “initiation of RDP” value is listed as “initiates RDP” and the “initiation of RDP (death initiator)” value is on record as “death initiators”.
